The text below walks through data of US20260091136A1, “USING ENHO GENE THERAPY TO TREAT CARDIOMETABOLIC DISEASE” (University of Pittsburgh-of the Commonwealth System of …, priority 2023, published 2026).

Data set [1] relates to HFpEF mice. Description: Body weight during four weeks of daily recombinant Adropin in HFpEF mice (Example 1). The class given is in vivo. The note with it: for relative body weight (change per mouse between days 0 and 29): p-value<0.0001. The text has this: The mouse HFpEF model used in this study was first reported in Schiattarella et al. (2019), Nature 568: 351-356 (PMID: 30971818). Adult C57BL/6N or C57BL/6J mice (i.e. C57BL/6 wildtype) are placed on a diet of either regular chow (“control”), or a high fat diet (60% fat) supplemented with 0.5 g/L L-NAME in drinking water (“HFpEF”) for 5-20 weeks.
(§1) Administration of Recombinant Adropin. Mice received low-fat chow or HFpEF diet for 10 weeks. For the following 4 weeks, the mice were maintained on respective diets and received daily injections of recombinant Adropin. Body weight was measured every day during the four weeks of treatment.

The subject of data set [2] is HFpEF mice. Description: Cardiac function testing by ultrasonography in HFpEF mice (Example 1). The data set is classed as in vivo. Particulars: for diastolic function: HFpEF mice, daily Adropin treatment. The method, then:
as §1
Cardiac function testing. After 2 weeks, mice were tested using ultrasonography to measure cardiac function and morphology. To determine systolic function and morphology, mice were tested using M-mode echocardiography to measure left ventricle (LV) mass, volume, wall thickness, and contraction (LV ejection fraction and fractional shortening). To determine diastolic function, mice were tested using Doppler to measure LV relaxation and filling (E/A ratio, E/e′ ratio, and isovolumetric relaxation time [IVRT]).

Data set [3] can be described thus: In vivo stability of recombinant Adropin (clearance from circulation). Particulars: within 1 hour.
Data set [4] concerns HFpEF mice. Description: Body weight, HFpEF (HFD+L-NAME) mice with daily i.p. recombinant adropin (cohort 2, Examples 3 and 4). The class given is in vivo, C57BL/6J mice. The note with it: HFpEF+Adropin vs vehicle-treated HFpEF, 450 nmol/kg daily i.p., day 28. The text has this: (§2) Twelve week-old C57BL/6J wild-type male mice were exposed to normal chow, or a combination of 60% high fat diet plus N^ω-nitro-L-arginine methyl ester (L-NAME: 0.5 g/L in drinking water) to induce HFpEF. After 8 weeks of diet, mice were randomly assigned to a control HFpEF group, or to a group receiving daily intraperitoneal injections of recombinant Adropin (450 nmol/kg) for the remaining weeks of the study. All animal experiments were approved by the University of Pittsburgh Institutional Animal Care and Use Committee. […] These changes occurred in the absence of systolic dysfunction (FIG. 6). Each marker of cardiac dysfunction was absent in HFpEF mice treated with Adropin (FIG. 6).
Animal Care and Use. Male C57BL/6J 8-week-old mice were obtained from the Jackson Laboratory and maintained on chow for 4 weeks to acclimate to their new environment. Animals were housed in the University of Pittsburgh animal facility under standard conditions with ad libitum access to water and food and maintained on a constant 12-hour light/dark cycle. At 12 weeks of age, the mice were exposed to normal chow (Chow; 60% carbohydrate, 26% protein, 14% fat), or a combination of high-fat diet (HFD; 20% carbohydrate, 20% protein, 60% fat) plus No-nitro-L-arginine methyl ester (L-NAME: 0.5 g/L) supplemented in their drinking water after adjusting the pH to 7.4 with 1N NaOH to induce HFpEF [10]. […]

Data set [5] deals with HFpEF mice. Description: Echocardiography, cohort 2. The data set is classed as in vivo, C57BL/6J mice. The note with it: HFpEF mice treated with Adropin 450 nmol/kg daily i.p.
From the text: as §2
Animal Care and Use. Male C57BL/6J 8-week-old mice were obtained from the Jackson Laboratory and maintained on chow for 4 weeks to acclimate to their new environment. […]
Echocardiography. Mice were anesthetized using isofluorane (1.5%-2.0% v/v by inhalation) and monitored for cardiac functional parameters in the supine position using a Visual Sonics Vevo 3100. […] The left atrial area was quantified in the apical 4-chamber view by tracing the border of the left atrium. Markers of systolic and diastolic function were calculated using standard echocardiography equations. […] Image analysis was performed independently by a blinded sonographer and all parameters were measured at least 3 times, and averages are presented.

The next data set concerns CPT1b. Description: O-GlcNAc co-immunoprecipitation from heart: CPT1b. The class given is in vivo, C57BL/6J mice. The note with it: Adropin-treated HFpEF mice, relative to levels in chow mice / HFpEF. The text has this:
Animal Care and Use. Male C57BL/6J 8-week-old mice were obtained from the Jackson Laboratory and maintained on chow for 4 weeks to acclimate to their new environment. Animals were housed in the University of Pittsburgh animal facility under standard conditions with ad libitum access to water and food and maintained on a constant 12-hour light/dark cycle. At 12 weeks of age, the mice were exposed to normal chow (Chow; 60% carbohydrate, 26% protein, 14% fat), or a combination of high-fat diet (HFD; 20% carbohydrate, 20% protein, 60% fat) plus No-nitro-L-arginine methyl ester (L-NAME: 0.5 g/L) supplemented in their drinking water after adjusting the pH to 7.4 with 1N NaOH to induce HFpEF [10]. For cohort 1, the mice were subject to the HFpEF diet for 15 weeks. For cohort 2, after 8 weeks of diet, mice were randomly assigned to a control or treatment group receiving daily intraperitoneal injections of either vehicle or recombinant adropin at 450 nmol/kg animal weight prepared in PBS with 0.1% BSA for the remaining 5 weeks of the study. L-NAME supplemented drinking water was changed weekly and adropin was made fresh and sterile filtered before each use.
Co-Immunoprecipitation. […] Images were obtained using LiCor Odyssey CLx System and protein densitometry was measured using the LiCor Image Studio Lite Ver. […]

The mark [6] stands for this setting: 2 weeks of Adropin, vs HFpEF mice without treatment.
The mark [7] stands for this setting: 2 weeks of Adropin, vs HFpEF mice without treatment, p-value <0.05.

Entries after “also recorded” stand apart in the source; their conditions may differ.

With “Adropin: recombinant Adropin peptide hormone encoded by the ENHO gene; full-length (SEQ ID NO: 1) or cleaved product of amino acids 34-76 (SEQ ID NO: 2) (CHSRSADVDSLSESSPNSSPGPCPEKAPPPQKPSHEGSYLLQP)”, the “relative body weight (change per mouse between days 0 and 29)” value in the data set with HFpEF mice [1] (HFpEF mice that received Adropin vs HFpEF mice without treatment) is given as “significantly lower”; in the data set with HFpEF mice [1] (HFpEF mice that received Adropin vs mice on control chow diet) it was “significantly greater”. The body weight result in the data set with HFpEF mice [1] (HFpEF mice which received Adropin versus HFpEF mice which did not, daily Adropin for four weeks, beginning on day 8) is recorded as “reduced; also recorded: decrease”. Also, the average cardiac output result in the data set on HFpEF mice [2] (setting [6]) is given as “greater”. In addition, the average ejection fraction entry in the data set with HFpEF mice [2] (setting [6]) is on record as “greater”. Besides, the “isovolumetric relaxation time (IVRT)” value in the data set with HFpEF mice [2] (setting [7]) is recorded as “significantly lower”. Also, the “left ventricle myocardial performance index (LV MPI)” value with HFpEF mice [2] (setting [7]) is given as “significantly lower”. Besides, the diastolic function entry with HFpEF mice [2] is “improves”; in the data set with HFpEF mice [2] (listed as Recombinant Adropin) it was “significant increase”; in the data set on HFpEF mice [2] (listed as recombinant Adropin), “improved”. The “average LV mass” value with HFpEF mice [2] (following 2 weeks of Adropin, vs HFpEF mice without treatment) is listed as “lower”. In data set [3], the “peptide cleared from circulation” value is reported as 96%. The absolute body weight result is given as “not associated with a significant decrease; also recorded: does not significantly change” in the data set on HFpEF mice [4] and “non-significant decrease” with HFpEF mice [4] (listed as adropin). Moreover, the entries for the “markers of cardiac (diastolic) dysfunction: increased heart/LV mass, decreased cardiac output, increased IVRT, increased LV MPI” value in the data set with HFpEF mice [5] and with HFpEF mice [5] (listed as adropin) were “absent; also recorded: improved” and “absent; also recorded: attenuates”, respectively. For the same substance, the “CPT1b O-GlcNAcylation” value in the data set on CPT1b was “restored; also recorded: reduced”.
